Legend:
N190A/S15V-hP2X3R = molecular target: T1, N190A/S15V-hP2X3R (Homo sapiens, UniProt P56373, N190A/S15V); assay: TEVC of ATP-induced currents, N190A/S15V-hP2X3R mutant in X. laevis oocytes; assay type: cell-based; conditions: read-out: % inhibition of 10 µM ATP-induced currents by 10 µM diclofenac
T1 construct: expressed in transfected cells; host or cells: Xenopus laevis oocytes (cRNA injection)
T1 sequence (P56373 1-397 S15V/N190A): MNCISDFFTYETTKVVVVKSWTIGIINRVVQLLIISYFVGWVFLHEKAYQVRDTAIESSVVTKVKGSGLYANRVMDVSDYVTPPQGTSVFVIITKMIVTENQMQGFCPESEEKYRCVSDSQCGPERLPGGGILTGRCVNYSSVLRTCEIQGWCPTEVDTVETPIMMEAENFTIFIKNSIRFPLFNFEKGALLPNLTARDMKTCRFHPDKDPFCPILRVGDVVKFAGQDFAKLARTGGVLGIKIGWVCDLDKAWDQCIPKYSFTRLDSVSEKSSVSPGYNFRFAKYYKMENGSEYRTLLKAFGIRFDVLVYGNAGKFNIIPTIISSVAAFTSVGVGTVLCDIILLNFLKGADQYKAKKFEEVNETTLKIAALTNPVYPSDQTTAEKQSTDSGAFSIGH
Method: Ion currents mediated by P2X receptors were evoked by the indicated concentration of ATP or α,β-meATP and were recorded 1 or 2 days after cRNA injection at ambient temperature at a holding potential of −60 mV by two-electrode voltage clamp (TEVC) as previously described ([Hausmann et al., 2006]). Calcium-free ORi^− solution (90 mM NaCl, 1 mM KCl, 2 mM MgCl2, 10 mM HEPES, pH 7.4) was used to avoid bias due to calcium-activated chloride channels (CaCC) endogenously expressed in X. laevis oocytes ([Miledi, 1982]; [Methfessel et al., 1986]). […]
In the case of fast-desensitizing P2XR subtypes (P2X1R and P2X3R), ATP is applied five times in repetition, and the ATP-induced current amplitude in the presence (after pre-incubation) of the antagonist (fourth application) is compared to the arithmetic mean of flanking control ATP-induced current amplitudes in the absence of the antagonist (third and fifth ATP application). […] The correction factor was calculated as the ratio of the fourth ATP-induced current amplitude to the third amplitude (Eq. 3) when the experiment was performed in the absence of the antagonist. […] Since the magnitude of the run-down varies from day to day and batch to batch of oocytes, the correction factor was determined on each day of the experiments and was calculated as the arithmetic mean of several recordings (at least 3–5 and on average 5) on each day. […]

[1] = molecular target: T2, native pig P2X2/3Rs in DRG neurons (Sus scrofa, UniProt F1RI70+I3L7H5); assay: Whole-cell patch-clamp of α,β-meATP-induced currents in pig DRG neurons
T2 sequence (I3L7H5 1-397): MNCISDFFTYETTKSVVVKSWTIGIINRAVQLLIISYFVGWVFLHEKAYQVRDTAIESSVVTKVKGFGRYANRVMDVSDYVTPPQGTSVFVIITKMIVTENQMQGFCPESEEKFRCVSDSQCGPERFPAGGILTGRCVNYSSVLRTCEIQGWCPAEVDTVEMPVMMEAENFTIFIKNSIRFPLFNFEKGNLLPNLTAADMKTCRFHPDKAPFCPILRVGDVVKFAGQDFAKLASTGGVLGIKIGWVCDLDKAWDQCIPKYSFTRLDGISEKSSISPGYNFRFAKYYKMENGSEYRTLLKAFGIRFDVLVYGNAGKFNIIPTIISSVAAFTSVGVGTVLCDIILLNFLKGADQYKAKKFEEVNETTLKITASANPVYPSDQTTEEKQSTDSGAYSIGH
T2 sequence (F1RI70 1-417): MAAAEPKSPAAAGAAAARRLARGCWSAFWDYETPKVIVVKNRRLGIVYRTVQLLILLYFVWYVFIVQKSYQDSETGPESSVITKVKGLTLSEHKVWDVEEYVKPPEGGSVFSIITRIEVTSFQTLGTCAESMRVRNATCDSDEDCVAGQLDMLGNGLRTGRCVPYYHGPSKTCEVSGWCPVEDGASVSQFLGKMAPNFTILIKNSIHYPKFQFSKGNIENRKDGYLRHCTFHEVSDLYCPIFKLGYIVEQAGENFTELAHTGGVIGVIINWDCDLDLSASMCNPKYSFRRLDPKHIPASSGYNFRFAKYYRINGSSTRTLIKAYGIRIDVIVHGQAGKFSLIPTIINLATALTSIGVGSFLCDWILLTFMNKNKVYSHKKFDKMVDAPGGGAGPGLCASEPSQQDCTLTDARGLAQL
Method: For this purpose, pigs of the German Landrace breed, with an average age of 15 weeks (14.6 SD2.7) and weight of 47.3 kg (SD11.2), were euthanized using an overdose of pentobarbital 60 mg/kg body weight. Subsequently, the DRG were collected. The DRG of pigs were transferred on ice, and fine excision was performed in ice-cold DMEM F12 medium containing 10% FBS and treated with 1 mg/ml collagenase P, 1 mg/ml trypsin T1426, and 0.1 mg/ml DNAse for digestion. Then, the DRG were cut into small pieces inside the digestion medium for surface enlargement and incubated at 37°C and 5% CO2 for 120 ±30 min. After approximately 60 min in the digestion medium, the DRG were triturated using a glass pipette. After the full incubation time, they were triturated thrice using custom-pulled glass pipettes with decreasing tip diameters (from ∼1.1–1.2 to ∼0.3–0.4 mm). For further purification, the DRG were centrifuged at 500 G and 4°C twice for 4 minutes each, and the pellets were suspended in DMEM F12 with 10% FBS. They were subsequently separated from lighter cell fragments and myelin by centrifugation of a Percoll gradient containing a 60% Percoll and a 25% Percoll gradient for 20 min at 500 G. DRG neurons were plated on coverslips coated with poly-D-lysine (100 μg/ml), laminin (10 μg/ml), and fibronectin (10 μg/ml). Neurons were then cultured in neurobasal A medium supplemented with B27, penicillin, streptomycin, and L-glutamine and used for voltage-clamp recordings after 12–72 h in culture.
Whole-cell voltage-clamp recordings of DRG neurons were performed using glass electrodes with micropipette tip resistances of 1.3–3.5 MΩ, pulled and fire-polished with a Zeitz DMZ-puller. The intracellular solution contained 10 mM NaCl, 140 mM CsF, 10 mM HEPES, 1 mM EGTA, 5 mM glucose, and 5 mM TEA-Cl (adjusted to pH 7.3 using CsOH). The extracellular bathing solution contained 140 mM NaCl, 3 mM KCl, 1 mM MgCl2, 1 mM CaCl2, 10 mM HEPES, and 20 mM glucose (adjusted to pH 7.4 using NaOH). The liquid junction potential was corrected by −7.8 mV. […]

[2] = 100 µM diclofenac, 10 µM α,β-meATP, n = 11

For `O=C(O)Cc1ccccc1Nc1c(Cl)cccc1Cl` [Diclofenac, diclofenac], the inhibition at 10 µM (N190A/S15V-hP2X3R) was 8.1%, the “mean block ± SD, fourth application vs. mean of third and fifth application” value [1, 2] was 70.9 ± 37.2% and the “mean block ± SD, fourth application vs. preceding third application” value [1, 2] was 70.2 ± 34.3%. The inhibition at 100 µM ([1]; DRG neuron, read-out: inhibition of α,β-meATP-elicited whole-cell currents by 100 µM diclofenac) was 70.5%.

Reference: article PMC10060569 (Frontiers in Pharmacology, 2023)
